As a reminder, the logD is lipophilicity at a set pH, counting ionised and neutral species. Low values mean lower lipophilicity, high ones higher lipophilicity. The Ki is the dissociation constant of the complex between target and ligand, obtained from inhibition or displacement. The term inhibition denotes the change of the read-out against control, counted positive when it falls. A word on the half-life: it is the time in which the quantity being followed falls by half. A low value points to fast loss. What is called Cmax is the peak of the concentration-time curve. Broadly, the AUC is concentration integrated over time. As a reminder, the solubility is the dissolved amount per volume that the medium holds. The low end stands for a poorly soluble substance, the high end for a readily soluble substance. The term CL/F denotes the apparent clearance, not corrected for the fraction that reaches the circulation.

Results on 28 compounds are retold here after ChEMBL document CHEMBL1140582, “Development of CXCR3 antagonists. Part 2: Identification of 2-amino(4-piperidinyl)azoles as potent CXCR3 antagonists” (Bioorg Med Chem Lett, 2007).

In brackets after ≈: the same amount, converted by molar mass. Some results are limits rather than exact numbers.

The nature of data set [1]: Intrinsic clearance in mouse microsomes at 0.5 uM. Format: ADME, Microsome.
Data set [2] is described as follows: Partition coefficient, log D at pH 7.4. As to conditions: octanol/water.
For data set [3], the target named is T1, C-X-C chemokine receptor type 3 (Homo sapiens, UniProt P49682).
T1 sequence (P49682 whole entry): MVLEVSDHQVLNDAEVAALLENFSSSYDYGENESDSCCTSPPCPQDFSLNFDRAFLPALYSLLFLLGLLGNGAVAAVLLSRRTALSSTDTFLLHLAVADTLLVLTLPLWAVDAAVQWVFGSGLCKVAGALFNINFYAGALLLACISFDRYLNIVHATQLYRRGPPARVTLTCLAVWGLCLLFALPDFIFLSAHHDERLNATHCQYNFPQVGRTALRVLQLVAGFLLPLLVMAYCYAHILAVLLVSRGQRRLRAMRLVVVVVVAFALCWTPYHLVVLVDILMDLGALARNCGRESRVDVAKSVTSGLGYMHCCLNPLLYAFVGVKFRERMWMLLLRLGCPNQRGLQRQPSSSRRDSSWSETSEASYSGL
Kind of data set: Binding affinity to human CXCR3 receptor expressed in CHO membrane by ITAC-stimulated GTP gammaS assay. Format: cell membranes.

Data set [4] has as its target T2, C-X-C chemokine receptor type 3 (Homo sapiens) (UniProt P49682).
T2 sequence (whole entry): T1 sequence (P49682 whole entry)
Kind of data set: Inhibition of human CXCR3 expressed in CHO membrane at 10 uM by ITAC-stimulated GTP gammaS assay. Format: cell membranes.

A further data set addresses CYP2D6 (Homo sapiens, UniProt P10635). Description: Inhibition of CYP2D6 at 50 uM. The class given is ADME.
In a further data set the target is Cytochrome P450 2D6 (Homo sapiens, UniProt P10635). Kind of data set: Inhibition of CYP2D6. Format: ADME.
Sequence of Cytochrome P450 2D6 (P10635 whole entry): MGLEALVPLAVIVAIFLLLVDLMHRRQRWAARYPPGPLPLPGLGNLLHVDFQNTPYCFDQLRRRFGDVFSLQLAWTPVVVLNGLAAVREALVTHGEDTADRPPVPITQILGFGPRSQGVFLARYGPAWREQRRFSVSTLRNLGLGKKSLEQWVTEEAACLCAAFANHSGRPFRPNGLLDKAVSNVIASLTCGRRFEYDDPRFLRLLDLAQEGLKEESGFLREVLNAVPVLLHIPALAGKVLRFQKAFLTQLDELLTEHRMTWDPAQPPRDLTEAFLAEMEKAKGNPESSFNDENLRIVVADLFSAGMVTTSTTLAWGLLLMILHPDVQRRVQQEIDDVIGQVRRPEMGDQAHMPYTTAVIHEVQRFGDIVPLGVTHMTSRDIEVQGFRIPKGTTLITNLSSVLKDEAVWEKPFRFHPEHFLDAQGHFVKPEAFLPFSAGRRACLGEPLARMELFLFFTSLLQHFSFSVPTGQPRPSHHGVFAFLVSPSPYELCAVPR
A short description of data set [5]: Half life in mouse at 10 mg/kg, po. Format: ADME, organism-based. The settings on record: in vivo. The arrangement: dose 10 mg/kg, route oral.
Data set [6] is described as follows: Cmax in mouse. The class given is ADME, organism-based. The settings on record: in vivo.
Data set [7] can be described thus: AUC in mouse. Format: ADME, organism-based. The settings on record: plasma.
Data set [8] in a line: Solubility of the compound. Format: physicochemical.
The nature of data set [9]: Clearance in mouse plasma at 10 mg/kg, po. Format: ADME, organism-based. Also noted: dose 10 mg/kg, route oral.
The species named for a further data set is Homo sapiens. Kind of data set: Protein binding in human plasma. As to conditions: read-out: PPB (converted).

Sequence of CYP2D6 (P10635 whole entry): as above

With `CC1(C)[C@H]2CC=C(CN3CCC(N4CCN(c5cc(C(F)(F)F)cc(C(F)(F)F)c5)C4=O)CC3)[C@@H]1C2`, the clearance in data set [1] turned out to be 7 µL/min/mg. The logD in data set [2] was > 5.5. In data set [3], this compound gave an inhibition constant Ki of 170 nM.

Turning to `CC(=O)c1cccc(N2C(=O)CN(C3CCN(CC4=CC[C@H]5C[C@@H]4C5(C)C)CC3)C2=O)c1`, in [2], the logD was 3.4. Besides, the inhibition in [4] is < 20%.

Regarding `CSc1cccc(N2C(=O)CN(C3CCN(CC4=CC[C@H]5C[C@@H]4C5(C)C)CC3)C2=O)c1`, the clearance in data set [1] was determined as 230 µL/min/mg. The compound further gave a logD in [2] of 5. Affinity in data set [3] was put at a Ki of 750 nM.

As to `CC1(C)[C@H]2CC=C(CN3CCC(Nc4nc(-c5cc(C(F)(F)F)cc(C(F)(F)F)c5)cs4)CC3)[C@@H]1C2`, the clearance in data set [1] came out at 34 µL/min/mg. Also, the logD in data set [2] was > 5. The inhibition at 50 µM at CYP2D6 is < 20%. Moreover, in data set [3], the inhibitory constant (Ki) turned out to be 260 nM.

In turn, `CN(c1nc2c(Cl)cccc2s1)C1CCN(CC2=CC[C@H]3C[C@@H]2C3(C)C)CC1` registered a logD in data set [2] of 5. The same compound yielded a Ki in data set [3] of 460 nM.

As to `CC1(C)[C@H]2CC=C(CN3CCC(N4CC(=O)N(c5cc(C(F)(F)F)cc(C(F)(F)F)c5)C4=O)CC3)[C@@H]1C2`, in [1], the clearance is 220 µL/min/mg. The logD in data set [2] was > 5.5. For the same compound, the affinity in [3], expressed as Ki, was 26 nM.

For `CN(c1nc2cc(Cl)ccc2s1)C1CCN(CC2=CC[C@H]3C[C@@H]2C3(C)C)CC1`, the clearance in data set [1] was 41 µL/min/mg. The compound also showed a logD in data set [2] of 5. At Cytochrome P450 2D6, this compound showed an Activity of 3.5 µM. Moreover, the Ki in [3] came to 290 nM.

Turning to `CCc1cccc(N(C)C(=O)NC2CCN(CC3=CC[C@H]4C[C@@H]3C4(C)C)CC2)c1`, the inhibition constant (Ki) in data set [3] was determined as 3500 nM.

For `CC1(C)[C@H]2CC=C(CN3CCC(Nc4nc(-c5ccccc5)cs4)CC3)[C@@H]1C2`, in data set [2], the logD came to 4.7. In addition, on CYP2D6, the inhibition at 50 µM was < 20%. This compound also returned a Ki in [3] of 880 nM.

In the case of `CC1(C)[C@H]2CC=C(CN3CCC(N4CC(=O)N(c5cc(F)cc(C(F)(F)F)c5)C4=O)CC3)[C@@H]1C2`, in data set [1], the clearance came out at 290 µL/min/mg. Also, the pH-dependent lipophilicity (logD) in [2] stood at 4.85. In addition, in data set [3], the Ki amounted to 100 nM.

In the case of `CC1(C)[C@H]2CC=C(CN3CCC(Nc4nc5ccccc5s4)CC3)[C@@H]1C2`, in [1], the clearance worked out at 1 µL/min/mg. Further, in data set [2], the log distribution coefficient (logD) is > 5. The Activity on Cytochrome P450 2D6 stood at 13 µM. In addition, the inhibition constant Ki in data set [3] turned out to be 350 nM.

Compound `CC1(C)[C@H]2CC=C(CN3CCC(Nc4nc5c(Br)cccc5s4)CC3)[C@@H]1C2` displayed a clearance in [1] of 140 µL/min/mg. Also, in data set [2], the log distribution coefficient (logD) was > 5. Also, the Activity at Cytochrome P450 2D6 is 1.2 µM. The Ki in data set [3] was 150 nM.

`CC1(C)[C@H]2CC=C(CN3CCC(N4CC(=O)N(c5cccc(C(F)(F)F)c5)C4=O)CC3)[C@@H]1C2` came in with a clearance in data set [1] of 318 µL/min/mg. Also, the logD in data set [2] turned out to be 4.6. The same compound returned a Ki in data set [3] of 220 nM.

Compound `CN(c1nc2ccccc2[nH]1)C1CCN(CC2=CC[C@H]3C[C@@H]2C3(C)C)CC1` displayed a logD in data set [2] of 4.2. For the same compound, the inhibitory constant (Ki) in [3] turned out to be 950 nM.

Compound `CCc1cccc(N2C(=O)CN(C3CCN(CC4=CC[C@H]5C[C@@H]4C5(C)C)CC3)C2=O)c1` showed a clearance in data set [1] of 190 µL/min/mg. Further, the logD in data set [2] turned out to be 4.7. This compound displayed an inhibition constant Ki in data set [3] of 380 nM.

For the compound `CN(c1nc2ccccc2s1)C1CCN(CC2=CC[C@H]3C[C@@H]2C3(C)C)CC1`, the clearance in data set [1] was found to be 78 µL/min/mg. In addition, the log distribution coefficient (logD) in data set [2] was > 5. At Cytochrome P450 2D6, this compound gave an Activity of 2.2 µM. This compound also returned a Ki in [3] of 140 nM.

In the case of `CN(C(=O)Nc1cccc(C(F)(F)F)c1)C1CCN(CC2=CC[C@H]3C[C@@H]2C3(C)C)CC1`, the affinity in data set [3], expressed as Ki, was 180 nM.

As for `CC1(C)[C@H]2CC=C(CN3CCC(Nc4nc(-c5ccc(Cl)c(Cl)c5)cs4)CC3)[C@@H]1C2`, the logD in data set [2] was > 5. In addition, at CYP2D6, the inhibition at 50 µM was < 20%. Further, the Ki in data set [3] turned out to be 460 nM.

In the case of `CN(c1nc2cccc(Cl)c2s1)C1CCN(CC2=CC[C@H]3C[C@@H]2C3(C)C)CC1`, the logD in data set [2] is > 5. The compound also had an Activity at Cytochrome P450 2D6 of 4.1 µM. The compound further registered a Ki in data set [3] of 620 nM.

With `CN(c1nc2ccccc2o1)C1CCN(CC2=CC[C@H]3C[C@@H]2C3(C)C)CC1`, the pH-dependent lipophilicity (logD) in data set [2] was 4.6. In data set [3], this compound yielded a Ki of 720 nM.

With `CC1(C)[C@H]2CC=C(CN3CCC(Nc4nc5ccccc5o4)CC3)[C@@H]1C2`, the Ki in data set [3] worked out at 680 nM.

Compound `CC1(C)[C@H]2CC=C(CN3CCC(Nc4nc5ccc(Br)cc5s4)CC3)[C@@H]1C2` registered a clearance in [1] of 150 µL/min/mg. In data set [2], the pH-dependent lipophilicity (logD) is > 5. The compound also returned an Activity at Cytochrome P450 2D6 of 0.7 µM. Moreover, in data set [3], the affinity, expressed as Ki, was 130 nM.

In [1], `CN(c1nc2ccc(Cl)cc2s1)C1CCN(CC2=CC[C@H]3C[C@@H]2C3(C)C)CC1` came in with a clearance of 48 µL/min/mg. Further, the logD in data set [2] came to 5. This compound also gave an Activity on Cytochrome P450 2D6 of 7.3 µM. Also, affinity in data set [3] was put at a Ki of 170 nM.

Consider `CC1(C)[C@H]2CC=C(CN3CCC(N(Cc4ccccc4)C(=O)Nc4cccc(C(F)(F)F)c4)CC3)[C@@H]1C2`, for which the inhibition in data set [4] is < 20%.

`CC1(C)[C@H]2CC=C(CN3CCC(N4CCN(c5cc(F)cc(C(F)(F)F)c5)C4=O)CC3)[C@@H]1C2` came in with a clearance in data set [1] of 88 µL/min/mg. This compound also showed a log distribution coefficient (logD) in data set [2] of 4.6. The compound further displayed a Ki in data set [3] of 200 nM.

As for `CC1(C)[C@H]2CC=C(CN3CCC(Nc4nc(-c5cc(C(F)(F)F)cc(C(F)(F)F)c5)ns4)CC3)[C@@H]1C2`, the clearance in data set [1] was 16 µL/min/mg. This compound also showed a half-life in data set [5] of 5.4 h. This compound gave a maximum concentration (Cmax) in data set [6] of 2010 ng/mL. For the same compound, the AUC in [7] stood at 10800 ng·h/mL. Moreover, in [2], the logD was found to be 5. Further, the solubility in data set [8] came to 2.7 µg/mL (≈ 5.09 µM). The compound also gave an Activity on Cytochrome P450 2D6 of 15 µM. The compound also returned a CL/F in [9] of 2.8 mL/min/kg. Besides, the fraction unbound in the data set listed under Homo sapiens was 0.003. Also, the affinity in data set [3] corresponds to a Ki of 270 nM.

`CC1(C)[C@H]2CC=C(CN3CCC(N4CC(=O)N(c5ccc(Cl)c(C(F)(F)F)c5)C4=O)CC3)[C@@H]1C2` had a clearance in data set [1] of 280 µL/min/mg. Moreover, the pH-dependent lipophilicity (logD) in data set [2] was found to be 5.3. Also, affinity in data set [3] was put at a Ki of 120 nM.

`CCN(C(=O)Nc1cccc(C(F)(F)F)c1)C1CCN(CC2=CC[C@H]3C[C@@H]2C3(C)C)CC1`: the inhibitory constant (Ki) in data set [3] was 3600 nM.
